Patent publication EP0088462A2, “Anti-inflammatory and rheumatic composition containing organophosphonate and steroid” (THE PROCTER & GAMBLE COMPANY, priority 1982, dated 1983)
Marks after values point to notes of the source that are not given here.

Test system: rat adjuvant arthritis
Assay: Rat adjuvant arthritis (Example I): paw edema, bone changes and systemic parameters after 46 days of daily treatment
Type: in vivo, male Lewis rats
Details: for Group Average Fat Free Dry Weight of Bone from Tibias: daily
Excerpt: One hundred and twenty-five (125) male Lewis rats weighing between 160 and 180 grams each were randomly divided into 12 groups of ten rats each, except the vehicle control group which had 15 rats. Each group was placed under a treatment regimen as described in the table below for a 46 day period.
Adjuvant arthritis was induced in groups one through twelve by a single intradermal injection of heat-killed Mycobacterium butyricum in paraffin oil. The drug treatments wen begun on the same day that the adjuvant was administered, and continued on a daily basis through the study. Drug doses were adjusted each week for changes in body weight.
Paw edema was measured weekly by liquid displacement, immersing the hind legs in a liquid reservoir to the anatomical hair line. Bone changes were evaluated radiographically and by chemical analysis at the conclusion of the study. Ectopic calcification was quantitated by use of a point-counting system with grids of one millimeter square.
The diphosphonate treatment solution for use on the animals in group 2, 3, 7-12, was prepared as follows: the disodium salt of dichloromethane diphosphonic acid was dissolved in saline, adjusted to a pH of 7.4 using sodium hydroxide, and sterilized by vacuum filtration (0.2 micron). The concentration of this solution was adjusted to a concentration of 5 mg of C12 MDP (disodium salt) per milliliter of solution.
The prednisolone to be administered was suspended in […]. The concentration of this suspension was adjusted to 0.10 milligram per milliliter so that it could be administered at a dose volume of 0.5 ml/100 gm body weight.
The disodium salt of Cl2MDP was administered by subcutaneous ventral flank injections. The prednisolone was administered by gastric intubation.
At the end of the treatment period, the rats were sacrificed, necropsied, and the effects of the treatment on the rats were measured in the categories listed below.

[1] = single agent versus placebo (saline and methyl cellulose)

O=P(O)(O)C(Cl)(Cl)P(=O)(O)O [Cl2MDP, Dichloromethanediphosphonic acid]
Group Average Fat Free Dry Weight of Bone from Tibias (Cl2MDP 2 mg/kg subcutaneous, Prednisolone none): 372.48* | Group Average Fat Free Dry Weight of Bone from Tibias (Cl2MDP 5 mg/kg subcutaneous, Prednisolone none): 382.42* | inhibiting bone changes associated with arthritic disease [1]: significantly more effective than the placebo | inhibiting loss of body, weight [1]: significantly more effective than the placebo | inhibiting paw edema [1]: significantly more effective than the placebo | inhibiting spleen weight/body weight ratio [1]: significantly more effective than the placebo

C[C@]12C=CC(=O)C=C1CC[C@@H]1[C@@H]2[C@@H](O)C[C@@]2(C)[C@H]1CC[C@]2(O)C(=O)CO [Prednisolone, 11 β, 17, 21-Trihydroxypregna-1,4-diene-3, 20-dione]
Group Average Fat Free Dry Weight of Bone from Tibias (Cl2MDP none, Prednisolone 0.25 mg/kg by gastric intubation): 308.96 | Group Average Fat Free Dry Weight of Bone from Tibias (Cl2MDP none, Prednisolone 0.50 mg/kg by gastric intubation): 311.56 | Group Average Fat Free Dry Weight of Bone from Tibias (Cl2MDP none, Prednisolone 2.50 mg/kg by gastric intubation): 315.58 | inhibiting pathological caldivication (prednisolone alone): effective | inhibiting the calcium and phosphorus in bone (prednisolone alone): effective | inhibiting paw edema [1]: effective
